Laboratory results as given in US6001799A, “Method of treating hepatitis C in non-responders to interferon treatment” (SciClone Pharmaceuticals, Inc., priority 1993, dated 1999).
Where no end group is shown, it is not given here.

Tests used:
Hepatitis C = assay: Treatment of Hepatitis C patients with Thymosin α-1 during α-IFN administration (Example 6); assay type: in vivo, human; settings: after 6 months
Protocol: The course of the disease and its response to drug treatments may be followed by clinical examination and laboratory findings.
Efficacy of Thymosin α-1 for treatment of Hepatitis C was shown in two Hepatitis C patients who were previous non-responders to α-interferon. These two patients were treated with Thymosin α-1 by subcutaneous injection of 1 mg thereof twice weekly, during administration three times weekly of 2 million units of α-IFN. […] In three additional Hepatitis C patients treated as above, serum ALT levels were reduced 50% after 6 months.

[1] = tested on: response to influenza vaccine; settings: cited from earlier work
[2] = tested on: Woodchuck Hepatitis Virus; settings: infected woodchuck; cited from earlier work
hepatitis B virus (HBV) = settings: treated for a year, cited from earlier work
[3] = tested on: nonsmall cell lung cancer; settings: both THNα1 treatment groups; cited from earlier work
HCV-related diseases = settings: in vivo; cited from earlier work

In the case of “Thymosin α-1 (SDAAVDTSSEITTKDLKEKKEVVEEAEN; ends and bridges not checked; UniProt P06454 2-29, looked up)”, the “reduction of serum ALT (threshold not achieved)” value (Hepatitis C; six additional Hepatitis C patients, same regimen with α-IFN) is reported as < 50%, the “response to treatment (serum ALT levels reduced to normal)” value (Hepatitis C; six other Hepatitis C patients, same regimen with α-IFN) is reported as “complete response” and the “serum ALT levels reduced” value (Hepatitis C; three additional Hepatitis C patients, same regimen with α-IFN) is reported as 50%. The “reduction of serum alanine transaminase (ALT)” value (Hepatitis C; two patients, previous non-responders to α-interferon, 1 mg s.c. twice weekly during 2 million units α-IFN three times weekly) was 50%, the antibody to influenza ([1]; s.c. twice weekly from vaccination, six weeks post-vaccine) was “higher levels of antibody to influenza than controls” and the “toxicity in drug recipients” value ([1]; s.c. twice weekly) was “No clinical or biochemical toxicity”. The clinical parameters [2] was “no improvement”, the “viral DNA replication” value [2] was “suppressed viral DNA replication” and the “serum ALT” value (hepatitis B virus (HBV); THNα1 5 patients, TF-5 2 patients) was “marked decrease”. The “patients initially positive for HBSAg who cleared this antigen” value (hepatitis B virus (HBV); THNα1 and TF-5 patients pooled) was 5 of 6, the “patients with reduced levels of serum HBV DNA” value (hepatitis B virus (HBV); THNα1 and TF-5 patients pooled) was 6 of the 7 and the “relapse-free survival and overall survival versus placebo group” value [3] was “greater”.

In the case of `Nc1nc2c(ncn2COCCO)c(=O)[nH]1` [acyclovir], the “effectiveness in halting or slowing progression of HCV-related diseases” value (HCV-related diseases) is listed as “ineffective”.
